Laboratory results reported in patent US20150093451A1, “METHOD OF INCREASING ENERGY EXPENDITURE” (Reoxcyn Discoveries Group, Inc., priority 2007, published 2015).

System: NRF2
Assay: Western Blot validation of NRF2 nuclear accumulation and extra-nuclear protein phosphorylation
Assay type: cell-based, human
Protocol: 8. A Western Blot analysis was done on extra-nuclear and intra-nuclear fractions, separated by differential centrifugation, of serum starved HMVEC-L cell cultures exposed to <1% of a composition of the invention compared with a positive hydrogen peroxide control to determine phosphorylation events (oxidant action) in the extra-nuclear fraction and NRF2 (antioxidant transcription) in the intra-nuclear fraction at 0, 30, 60, 90 and 120 min intervals.
HMVEC-L were treated with 1% of a composition of the invention, nuclear extracts were separated through centrifugal differentiation from the extra-nuclear cytosol at 30, 60 and 120 min and subjected to Western Blot analysis for NRF2. In the Western blot experiment the extra-nuclear fraction was probed for phosphorylated proteins using a combination of anti-phospho serine, threonine and tyrosine antibodies. Virtually all cellular processes are regulated by posttranslational modifications and protein phosphorylation is a prevalent mechanism. Observable changes in protein phosphorylation can lead to a mechanistic understanding of the cellular processes perturbed by compositions of the invention and provide a defined endpoint to better define dose-dependent regulation of cell function by compositions of the invention in vitro, as well as provide a potential candidate molecular marker that may be used to provide in vitro-in vivo correlates. […]

OO [H2O2, Hydrogen peroxide]
phosphorylation of extra-nuclear protein (HMVEC-L extra-nuclear fraction, 1% composition, H2O2 positive control): marked increase in the phosphorylation | NRF2 levels in nuclear extracts (HMVEC-L, 1% ASEA 30, 60, 120 min, H2O2 30 min): did not increase nuclear NRF2 levels
